Data as given in patent publication US6589773B1, “Methods and compositions for a modified yeast strain with increased permeability and uses thereof” (priority 2000, dated 2003).
≈ marks a conversion by molar mass, not a printed value.

Experiments:
[1] = test system: modified strains SKY54 and SKY197; experiment: Yeast strain sensitivity to selected compounds (top-agar death zones / MIC), modified strains; type: cell-based, S. cerevisiae; settings: for change of sensitivity on induction of HXT9 and HXT11 expression: Gal/Raff containing media; for sensitivity relative to parental strains SKY48 and SKY191, based on the size of the death zones: YPD media, same concentration
Procedure: As used herein, “hyperpermeable” yeast cells or a “hyperpermeable” yeast strain, are yeast cells and strains which have an increased sensitivity to one or more test compounds, relative to the sensitivity of the yeast cells and strains without the above-described insertion-disruption of genes that alter cellular permeability. Sensitivity to such compounds and small molecules is determined by measuring the MIC (minimal inhibitory concentration) of such compounds to visible growth of yeast cells, disregarding a haze of barely visible growth of such yeast cells.
(§1) Decreasing concentrations of cycloheximide, 4-nitroquinolin-oxide, sulfmethuron methyl, and Zeocin were plated on parental yeast strains SKY48 and SKY191 and the modified yeast strains SKY54 and SKY197. From top to bottom of each plate, and from left to right of each row: 5 μg, 2.5 μg, 1 μg, 0.5 μg, 0.2 μg, and 50 ng of CYH; 2.5 μg, 1.25 μg, 0.5 μg, 0.25 μg, 0.1 μg, and 25 ng of NQO; 100 μg, 50 μg, 20 μg, 10 μg, 4 μg, and 1 μg of SMM; and 100 μg, 50 μg, 20 μg, 10 μg, 4 μg, and 1 μg of Zeo.
Yeast strain sensitivity to selected compounds SKY54 and SKY197 were tested for sensitivity to various concentrations of compounds, including cycloheximide (CYH), 4-nitroquinolin-oxide (NQO), sulfmethuron methyl (SMM) and Zeocin (Zeo), relative to the sensitivity of the parental strains, SKY48 and SKY191 to these compounds. Yeast cells were propagated on YPD or YPG/R plates in top-agar layer containing 1% of low melt SeaPlaque agarose and YPD or YPG/R growth media with glucose or galactose as the carbon source. CYH (5 mg/ml), NQO (2.5 mg/ml), SMM (100 mg/ml) and Zeo (100 mg/ml) stock solutions were diluted 2, 5, 10, 25, and 100-fold, and applied on top-agar growing yeast by means of prone device. Sensitivity to various concentrations of compounds was scored by visualization of growth on this media, and the size of “death zones” of sensitive colonies. Thus, the plates shown in FIG. 15 show the sensitivity of the parental and modified yeast strains to, from top to bottom of each plate, and from left to right of each row, 5 μg, 2.5 μg, 1 μg, 0.5 μg, 0.2 μg, and 50 ng of CYH; 2.5 μg, 1.25 μg, 0.5 μg, 0.25 μg, 0.1 μg, and 25 ng of NQO; 100 μg, 50 μg, 20 μg, 10 μg, 4 μg, and 1 μg of SMM; and 100 μg, 50 μg, 20 μg, 10 μg, 4 μg, and 1 μg of Zeo. […] When SKY54 and SKY197 were incubated on Gal/Raff containing media, thereby inducing expression of HXT9 and HXT11 genes, the sensitivity to CYH and 4-NQO increased. The estimated increase of death zone diameters for 4-NQO for SKY54 and SKY 197 on Gal/Raff media in comparison with the parental strains grown on the same media was ˜32-40%. After 48 hours of incubation on Gal/Raff media, sensitivity to CYH was estimated to be 0.01 μg/ml MIC (minimal inhibitory concentration). The MIC is defined as the lowest concentration (micrograms per milliliter of broth) that inhibited visible growth, disregarding a haze of barely visible growth. Sensitivity to CYH of a yeast strain harboring PDR1 and PDR3 deletions, and the HXT11 gene overexpressed from a multicopy plasmid, was previously reported as having an MIC of 0.03 μg/ml CYH (Nourani et al., 1997, Mol. Cell. Biol. 17:5453-5460). […] A comparative analysis of parental strain SKY48 and obtained SKY54 to 73,400 compounds from the SMT chemical library is shown in Table 2. SKY48 is sensitive to 1,959 compounds while SKY54 is sensitive to 3,011 compounds. Thus, SKY54 was sensitive to 154% as many compounds as the parental strain, SKY48.

[2] = test system: yeast strain harboring PDR1 and PDR3 deletions, and the HXT11 gene overexpressed from a multicopy plasmid; settings: previously reported, Nourani et al., 1997; cited from earlier work
[3] = test system: parental strains SKY48 and SKY191; experiment: Yeast strain sensitivity to selected compounds (top-agar death zones), parental strains; type: cell-based, S. cerevisiae; settings: all concentrations tested (100 μg to 1 μg)
Procedure: as §1
SKY48 and SKY191 parental strains The parent strains SKY48 and SKY 191 (MATαtrp1 URA3 his3 lexAop-LEU2 cIop-LYS2), with 6 or 2 lexA operators upstream of LEU2, respectively, have been described (Serebriiskii et al., 1999, J. Biol. Chem. 274:17080-17087, which is incorporated herein by reference in its entirety).
Yeast strain sensitivity to selected compounds SKY54 and SKY197 were tested for sensitivity to various concentrations of compounds, including cycloheximide (CYH), 4-nitroquinolin-oxide (NQO), sulfmethuron methyl (SMM) and Zeocin (Zeo), relative to the sensitivity of the parental strains, SKY48 and SKY191 to these compounds. […] Sensitivity to various concentrations of compounds was scored by visualization of growth on this media, and the size of “death zones” of sensitive colonies. […]

SMILES	change of sensitivity on induction of HXT9 and HXT11 expression [1]	estimated increase of death zone diameters in comparison with the parental strains ([1]; Gal/Raff media, parental strains grown on the same media)	sensitivity relative to parental strains SKY48 and SKY191, based on the size of the death zones [1]	MIC ([1]; Saccharomyces cerevisiae, SKY54ANDSKY197, 48 h, read-out: MIC (minimal inhibitory concentration))	MIC [2]	sensitivity (growth, size of death zones) ([1]; SKY54 and SKY197, all concentrations tested (100 μg to 1 μg))	sensitivity (growth, size of death zones) [3]
O=[N+]([O-])c1cc[n+]([O-])c2ccccc12 [4-NQO, 4-nitroquinolin-oxide]	increased	32-40%	significantly more sensitive	–	–	–	–
C[C@@H]1C[C@@H]([C@H](O)CC2CC(=O)NC(=O)C2)C(=O)[C@@H](C)C1 [CYH, cycloheximide]	increased	–	significantly more sensitive	0.01 µg/mL (≈ 0.0355 µM)	0.03 µg/mL (≈ 0.107 µM)	–	–
COC(=O)c1ccccc1S(=O)(=O)NC(=O)Nc1nc(C)cc(C)n1 [SMM, sulfmethuron methyl]	–	–	–	–	–	no sensitivity	no sensitivity
